“And” between values parts separate entries of the source, which are not always exact repeats. Equal entries are not always repeated.
Species on record: Rattus norvegicus
Experiment: DrugMatrix - Regimen: Daily Repeat
Format: toxicity, organism-based, Sprague-Dawley
Design: regimen Daily Repeat, gender Male, age 6-8 weeks
Settings: in vivo, po, route oral GAVAGE, vehicle .5 % CMC; for ABSOLUTE BASOPHIL / ABSOLUTE LYMPHOCYTE / ABSOLUTE MONOCYTE / ABSOLUTE SEGMENTED NEUTROPHIL / BASOPHIL / EOSINOPHIL / ERYTHROCYTE COUNT / HEMATOCRIT / HEMOGLOBIN / LEUKOCYTE COUNT / LYMPHOCYTE / MEAN CORPUSCULAR HEMOGLOBIN / MEAN CORPUSCULAR HEMOGLOBIN CONCENTRATION / MEAN CORPUSCULAR VOLUME / MONOCYTE / NEUTROPHIL / PLATELET COUNT / ABSOLUTE EOSINOPHIL / NUCLEATED RED BLOOD CELLS: tissue Blood; for ALANINE AMINOTRANSFERASE / ALBUMIN / ALKALINE PHOSPHATASE / ASPARTATE AMINOTRANSFERASE / BLOOD UREA NITROGEN / CARBON DIOXIDE / CHLORIDE / CHOLESTEROL / CREATINE PHOSPHOKINASE / CREATININE / GLUCOSE / LIPASE / PHOSPHORUS / POTASSIUM / SODIUM / TOTAL BILIRUBIN / TOTAL PROTEIN / URIC ACID / LACTATE DEHYDROGENASE: tissue Plasma
[1] = 0 mg/kg, 72 h, dose level Control, time 3 day
[2] = 0 mg/kg, 120 h, dose level Control, time 5 day
[3] = 11 mg/kg, 72 h, dose level Low, time 3 day
[4] = 11 mg/kg, 120 h, dose level Low, time 5 day

## COc1ccc2c3c1O[C@H]1C[C@@H](O)C=C[C@@]31CCN(C)C2 [GALANTAMINE]
[1]
  ABSOLUTE BASOPHIL: 0 CELLS/uL
  ABSOLUTE LYMPHOCYTE: 15937.67 CELLS/uL and 12269.67 CELLS/uL
  ABSOLUTE MONOCYTE: 138.33 CELLS/uL and 160.33 CELLS/uL
  ABSOLUTE SEGMENTED NEUTROPHIL: 1443 CELLS/uL and 970 CELLS/uL
  BASOPHIL: 0%
  EOSINOPHIL: 0.33% and 0%
  ERYTHROCYTE COUNT: 5.45 x10E6/uL and 5.76 x10E6/uL
  HEMATOCRIT: 34.43% and 36.57%
  HEMOGLOBIN: 13.38 G/DL and 14.22 G/DL
  LEUKOCYTE COUNT: 17.57 x10E3/uL and 13.4 x10E3/uL
  LYMPHOCYTE: 90.33% and 91.67%
  MEAN CORPUSCULAR HEMOGLOBIN: 24.6 pg and 24.67 pg
  MEAN CORPUSCULAR HEMOGLOBIN CONCENTRATION: 38.88 G/DL and 38.85 G/DL
  MEAN CORPUSCULAR VOLUME: 63.27 fL and 63.52 fL
  MONOCYTE: 0.83% and 1.17%
  NEUTROPHIL: 8.5% and 7.17%
  PLATELET COUNT: 1298 x10E3/uL and 1250.83 x10E3/uL
  ALANINE AMINOTRANSFERASE: 47.67 u/L and 49.17 u/L
  ALBUMIN: 4.18 G/DL and 4.33 G/DL
  ALKALINE PHOSPHATASE: 398.5 u/L and 378.5 u/L
  ASPARTATE AMINOTRANSFERASE: 93.17 u/L and 82.17 u/L
  BLOOD UREA NITROGEN: 16 mg/dL and 15 mg/dL
  CARBON DIOXIDE: 29.17 mmol/L and 34.33 mmol/L
  CHLORIDE: 98.17 MEQ/L and 99.17 MEQ/L
  CHOLESTEROL: 68.83 mg/dL and 71.17 mg/dL
  CREATINE PHOSPHOKINASE: 467.33 u/L and 258.67 u/L
  CREATININE: 0.14 mg/dL and 0.18 mg/dL
  GLUCOSE: 151.67 mg/dL and 142.67 mg/dL
  LIPASE: 9.33 u/L and 9 u/L
  PHOSPHORUS: 11.97 mg/dL and 11.67 mg/dL
  POTASSIUM: 6.43 MEQ/L and 7.13 MEQ/L
  SODIUM: 140.68 MEQ/L and 142.22 MEQ/L
  TOTAL BILIRUBIN: 0.18 mg/dL
  TOTAL PROTEIN: 5.82 G/DL and 5.77 G/DL
  URIC ACID: 1.48 mg/dL and 1.55 mg/dL
[2]
  ABSOLUTE BASOPHIL: 0 CELLS/uL
  ABSOLUTE EOSINOPHIL: 31 CELLS/uL and 23.33 CELLS/uL
  ABSOLUTE LYMPHOCYTE: 14327.83 CELLS/uL and 14943.67 CELLS/uL
  ABSOLUTE SEGMENTED NEUTROPHIL: 1321.67 CELLS/uL and 1084.33 CELLS/uL
  BASOPHIL: 0%
  EOSINOPHIL: 0.17%
  ERYTHROCYTE COUNT: 5.79 x10E6/uL and 5.71 x10E6/uL
  HEMATOCRIT: 36.1% and 35.28%
  HEMOGLOBIN: 14.15 G/DL and 14.27 G/DL
  LEUKOCYTE COUNT: 15.78 x10E3/uL and 16.08 x10E3/uL
  LYMPHOCYTE: 90.5% and 93%
  MEAN CORPUSCULAR HEMOGLOBIN: 24.48 pg and 25.02 pg
  MEAN CORPUSCULAR HEMOGLOBIN CONCENTRATION: 39.22 G/DL and 40.43 G/DL
  MEAN CORPUSCULAR VOLUME: 62.4 fL and 61.82 fL
  MONOCYTE: 0.67% and 0.17%
  NEUTROPHIL: 8.67% and 6.67%
  NUCLEATED RED BLOOD CELLS: 0.17 /100WBC and 0.33 /100WBC
  PLATELET COUNT: 1211.67 x10E3/uL and 1274 x10E3/uL
  ALANINE AMINOTRANSFERASE: 49 u/L and 54.17 u/L
  ALBUMIN: 4.27 G/DL and 4.22 G/DL
  ALKALINE PHOSPHATASE: 356.67 u/L and 373.17 u/L
  ASPARTATE AMINOTRANSFERASE: 90.17 u/L and 81.83 u/L
  BLOOD UREA NITROGEN: 20.5 mg/dL and 16.67 mg/dL
  CARBON DIOXIDE: 29.17 mmol/L and 30.33 mmol/L
  CHLORIDE: 98 MEQ/L and 99 MEQ/L
  CHOLESTEROL: 69.83 mg/dL and 71 mg/dL
  CREATINE PHOSPHOKINASE: 312 u/L and 273.5 u/L
  CREATININE: 0.21 mg/dL and 0.22 mg/dL
  GLUCOSE: 149.83 mg/dL and 141.83 mg/dL
  LACTATE DEHYDROGENASE: 322 u/L and 153.67 u/L
  LIPASE: 10 u/L and 10.33 u/L
  PHOSPHORUS: 12 mg/dL and 11.38 mg/dL
  POTASSIUM: 6.75 MEQ/L and 7.08 MEQ/L
  SODIUM: 142.8 MEQ/L and 142.75 MEQ/L
  TOTAL BILIRUBIN: 0.17 mg/dL and 0.18 mg/dL
  TOTAL PROTEIN: 6.1 G/DL
  URIC ACID: 1.68 mg/dL and 1.67 mg/dL
[3]
  ABSOLUTE BASOPHIL: 0 CELLS/uL
  ABSOLUTE EOSINOPHIL: 71.33 CELLS/uL
  ABSOLUTE LYMPHOCYTE: 10973.33 CELLS/uL
  ABSOLUTE MONOCYTE: 201 CELLS/uL
  ABSOLUTE SEGMENTED NEUTROPHIL: 1221 CELLS/uL
  BASOPHIL: 0%
  EOSINOPHIL: 0.67%
  ERYTHROCYTE COUNT: 5.6 x10E6/uL
  HEMATOCRIT: 35.33%
  HEMOGLOBIN: 13.47 G/DL
  LEUKOCYTE COUNT: 12.47 x10E3/uL
  LYMPHOCYTE: 87.67%
  MEAN CORPUSCULAR HEMOGLOBIN: 24.1 pg
  MEAN CORPUSCULAR HEMOGLOBIN CONCENTRATION: 38.13 G/DL
  MEAN CORPUSCULAR VOLUME: 63.17 fL
  MONOCYTE: 1.67%
  NEUTROPHIL: 10%
  NUCLEATED RED BLOOD CELLS: 0 /100WBC
  PLATELET COUNT: 1277.67 x10E3/uL
  ALANINE AMINOTRANSFERASE: 46.67 u/L
  ALBUMIN: 4.13 G/DL
  ALKALINE PHOSPHATASE: 368.33 u/L
  ASPARTATE AMINOTRANSFERASE: 76.33 u/L
  BLOOD UREA NITROGEN: 17 mg/dL
  CARBON DIOXIDE: 29.67 mmol/L
  CHLORIDE: 98.33 MEQ/L
  CHOLESTEROL: 76.33 mg/dL
  CREATINE PHOSPHOKINASE: 222.67 u/L
  CREATININE: 0.18 mg/dL
  GLUCOSE: 154.33 mg/dL
  LACTATE DEHYDROGENASE: 192 u/L
  LIPASE: 9.67 u/L
  PHOSPHORUS: 12.47 mg/dL
  POTASSIUM: 6.58 MEQ/L
  SODIUM: 142 MEQ/L
  TOTAL BILIRUBIN: 0.2 mg/dL
  TOTAL PROTEIN: 5.83 G/DL
  URIC ACID: 1.5 mg/dL
[4]
  ABSOLUTE BASOPHIL: 0 CELLS/uL
  ABSOLUTE EOSINOPHIL: 0 CELLS/uL
